Assays:
[1] = system: [14C] acetate incorporation in macromolecules, BT474 cells; test: Cell based [14C] acetate incorporation assay; conditions: Homo sapiens, BT-474, 3 h at 37° C., read-out: Cellular Activity (IC50 range)
Protocol: Cell Based [^14C] Acetate Incorporation Assay
In the cellular assay, ACSS2 inhibitors were screened against [^14C] acetate incorporation in macromolecules. 4×10^4 BT474 cells were plated in 96 well plates in growth media composed of DMEM & 10% FBS and incubated overnight in a 37° C., 5% CO2 incubator. The following day the cells were washed in HBSS and the assay was performed in 100 μl of HBSS. 50 μl of 4× compound in 4% DMSO was added to the cells and preincubated for 10 min. at 37° C. 50 μl of acetate solution (0.1 μCi ^14C acetate+10 μM ^12C acetate) was added to each well of the plate and incubated for 3 h in a 37° C., 5% CO2 incubator. Following incubation, cells were harvested with water on polyethylene imine (PEI) presoaked GF/C filtermat, air dried and radioactive count were recorded in Trilux micro beta Liquid Scintillation Counter (PerkinElmer).

[2] = target: T1, human ACSS2 (Homo sapiens, UniProt Q9NR19); test: ACSS2 enzyme assay (acetyl-CoA formation, LC-MS/MS); format: biochemical; conditions: cytosolic fraction of BT474 cells as ACSS2 source; 100 μM acetate, CoA and ATP; 2 h at 25° C.; read-out: Enzyme Activity (IC50 range)
T1 construct: The cytosolic fraction of BT474 cells was used as a source of the ACSS2 enzyme; endogenous in cells; host or cells: BT474 cells (cytosolic fraction)
T1 sequence (Q9NR19 whole entry): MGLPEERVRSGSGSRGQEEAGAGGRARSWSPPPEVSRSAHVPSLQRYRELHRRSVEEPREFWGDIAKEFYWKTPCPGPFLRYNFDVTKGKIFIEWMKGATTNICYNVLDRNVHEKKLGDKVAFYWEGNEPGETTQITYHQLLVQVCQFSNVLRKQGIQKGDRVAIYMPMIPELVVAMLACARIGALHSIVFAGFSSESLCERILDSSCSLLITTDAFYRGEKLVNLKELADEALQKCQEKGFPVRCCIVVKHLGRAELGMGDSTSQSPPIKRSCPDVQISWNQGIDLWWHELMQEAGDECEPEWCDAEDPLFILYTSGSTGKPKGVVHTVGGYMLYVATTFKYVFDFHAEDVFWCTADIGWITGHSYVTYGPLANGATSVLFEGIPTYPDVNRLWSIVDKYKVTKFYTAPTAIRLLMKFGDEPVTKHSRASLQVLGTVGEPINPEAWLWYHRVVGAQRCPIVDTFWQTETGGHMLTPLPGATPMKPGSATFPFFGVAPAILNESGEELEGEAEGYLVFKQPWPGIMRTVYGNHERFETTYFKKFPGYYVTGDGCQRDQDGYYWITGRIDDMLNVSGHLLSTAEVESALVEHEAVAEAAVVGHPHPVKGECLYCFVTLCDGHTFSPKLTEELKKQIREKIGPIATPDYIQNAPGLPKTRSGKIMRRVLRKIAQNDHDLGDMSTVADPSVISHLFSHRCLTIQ
Protocol: Novel compounds were screened in a human ACSS2 enzyme assay. Briefly, the ACSS2 enzyme reaction was monitored by directly measuring acetyl-CoA formation. The cytosolic fraction of BT474 cells was used as a source of the ACSS2 enzyme. A short protocol for this assay is provided below.
Preparation of Cytosolic Fraction from BT474 Cells
9×10^6 cells were harvested by trypsinization followed by centrifugation. The cell pellet was washed with PBS and dissolved in 500 μl STM buffer (50 mM Tris-HCl pH7.4, 250 mM sucrose, 5 mM MgCl2 & protease-phosphatase inhibitor cocktail) and homogenized at 600-1000 rpm for 1 min. on ice followed by incubation for 30 min. with intermittent vortexing. Supernatant was collected by centrifugation at 800 g for 15 min. at 4° C. Cytosolic fraction was prepared by further centrifugation of the supernatant at 12000 g for 15 min. at 4° C. Total protein content of the cytosolic fraction was estimated & diluted to 1 mg/ml concentration in storage buffer (25 mM Tris-HCl pH7.4, 1 mM MgCl2, 1 mM DTT & 10% glycerol) and stored at −80° C. for further use.
100 ng of cytosolic fraction in buffer composed of 25 mM Tris-HCl pH7.4 1 mM MgCl2, 1 mM DTT & 0.05% Tween20 was preincubated with desired concentrations of novel compounds for 5 min. maintaining 1% DMSO. Reaction was started with addition of substrate mix (100 μM of acetate, CoA and ATP) and incubated for 2 h at 25° C. with constant shaking at 500 rpm. Post incubation the reaction was terminated by addition of 10% TCA followed by 5 fold dilution in water. The reaction mixture was centrifuged at 800 g for 10 min. at RT and acetyl-CoA detected in supernatant by LC-MS/MS (QTrap5500 ABSCIEX).

Structure (SMILES)	IC50 [1]	IC50 [2]
CCC(O)CNC(=O)Nc1ccc2nc(-c3ccc(-c4ccccc4)cc3)c(-c3ccccc3)cc2c1 (stereo not shown) [Example 55, 1-(2-([1,1′-biphenyl]-4-yl)-3-phenylquinolin-6-yl)-3-(2-hydroxybutyl) urea]	> 10000 nM	≤ 10000 nM
CCC(O)CNC(=O)Nc1ccc2nc(-c3ccnc(O)c3)c(-c3ccnc(O)c3)cc2c1 (stereo not shown) [Example 29, 1-(2,3-bis(2-hydroxypyridin-4-yl)quinolin-6-yl)-3-(2-hydroxybutyl) urea]	> 10000 nM	> 10000 nM
CCC(O)CNC(=O)Nc1ccc2nc(-c3ccc(=O)[nH]c3)c(-c3ccc(=O)[nH]c3)cc2c1 (stereo not shown) [Example 27, 1-(2,3-bis(6-oxo-1,6-dihydropyridin-3-yl)quinolin-6-yl)-3-(2-hydroxybutyl) urea]	≤ 10000 nM	≤ 1000 nM
C#Cc1nc2ccc(NC(=O)NCC(O)CC)cc2cc1-c1ccccc1 (stereo not shown) [Example 60, 1-(2-ethynyl-3-phenylquinolin-6-yl)-3-(2-hydroxybutyl) urea]	< 100 nM	< 100 nM
Cn1cc(NC(=O)Nc2ccc3nc(-c4ccccc4)c(-c4ccccc4)cc3c2)cn1 [Example 144, 1-(2,3-diphenylquinolin-6-yl)-3-(1-methyl-1H-pyrazol-4-yl)urea]	< 100 nM	≤ 1000 nM
CC[C@@H](O)CNC(=O)Nc1ccc2nc(-c3ccccc3F)c(-c3ccccc3F)cc2c1 [Example 20, (R)-1-(2,3-Bis(2-fluorophenyl)quinolin-6-yl)-3-(2-hydroxybutyl)urea]	< 100 nM	< 100 nM
CCC(O)CNC(=O)Nc1ccc2nc(C)cc(C(N)=O)c2c1 (stereo not shown) [Example 74, 6-(3-(2-hydroxybutyl)ureido)-2-methylquinoline-4-carboxamide]	> 10000 nM	≤ 10000 nM
CCC(=O)CCC(=O)Nc1ccc2nc(-c3ccccc3OC)c(-c3ccccc3F)cc2c1 [Example 126, N-(3-(2-fluoro-phenyl)-2-(2-methoxy-phenyl)quinolin-6-yl)-4-oxohexan-amide]	< 100 nM	< 100 nM
CCC(O)CNC(=O)Nc1ccc2nc(C)c(-c3ccccc3Cl)cc2c1 (stereo not shown) [Example 81, 1-(3-(2-chlorophenyl)-2-methylquinolin-6-yl)-3-(2-hydroxybutyl) urea]	< 100 nM	< 100 nM
C=CCNC(=O)Nc1ccc2nc(-c3ccccc3)c(-c3ccccc3)cc2c1 [Example 134, 1-allyl-3-(2,3-diphenylquinolin-6-yl)urea]	≤ 1000 nM	≤ 1000 nM
CCC(O)CNC(=O)Nc1ccc2nc(-c3cccc(C(C)=O)c3)c(-c3cccc(C(C)=O)c3)cc2c1 (stereo not shown) [Example 21, 1-(2,3-bis(3-acetylphenyl)quinolin-6-yl)-3-(2-hydroxybutyl) urea]	≤ 10000 nM	≤ 10000 nM
CCC(O)CNC(=O)Nc1ccc2nc(-c3ccccc3OC)c(-c3ccccc3F)cc2c1 (stereo not shown) [Example 18, 1-(3-(2-fluorophenyl)-2-(2-methoxyphenyl)quinolin-6-yl)-3-(2-hydroxybutyl) urea]	< 100 nM	< 100 nM
CCC(O)CNC(=O)Nc1ccc2nc(C)c(-c3ccccc3)cc2c1C (stereo not shown) [Example 85, 1-(2,5-dimethyl-3-phenylquinolin-6-yl)-3-(2-hydroxybutyl) urea]	< 100 nM	< 100 nM
CC[C@@H](O)CNC(=O)Nc1ccc2nc(-c3ccccc3)c(C)c(C(=O)Nc3ccn(C)n3)c2c1 [Example 115, (R)-6-(3-(2-Hydroxybutyl)ureido)-3-methyl-N-(1-methyl-1H-pyrazol-3-yl)-2-phenylquinoline-4-carboxamide]	≤ 1000 nM	< 100 nM
CCC(O)CNC(=O)Nc1ccc2nc(-c3ccccc3)c(-c3ccccc3)c(C(N)=O)c2c1 (stereo not shown) [Example 49, 6-(3-(2-hydroxybutyl)ureido)-2,3-diphenylquino-line-4-carboxamide]	< 100 nM	< 100 nM
CCC(O)CNC(=O)Nc1ccc2nc(C)c(-c3ccccc3)cc2c1 (stereo not shown) [Example 52, 1-(2-hydroxybutyl)-3-(2-methyl-3-phenylquinolin-6-yl)urea]	< 100 nM	< 100 nM

Structure (SMILES)	IC50 [1]	IC50 [2]
CC[C@H](O)CNC(=O)Nc1ccc2nc(-c3ccccc3OC)c(-c3ccccc3F)cc2c1 [Example 36, (S)-1-(3-(2-fluorophenyl)-2-(2-methoxyphenyl)quinolin-6-yl)-3-(2-hydroxybutyl) urea]	< 100 nM	< 100 nM
COCCNC(=O)Nc1ccc2nc(C)c(-c3ccccc3)cc2c1 [Example 78, 1-(2-methoxyethyl)-3-(2-methyl-3-phenylquinolin-6-yl)urea]	≤ 1000 nM	≤ 1000 nM
CCC(O)CNC(=O)Nc1ccc2nc(C3CC3)c(-c3ccccc3)cc2c1 (stereo not shown) [Example 40, 1-(2-cyclopropyl-3-phenylquinolin-6-yl)-3-(2-hydroxybutyl) urea]	≤ 10000 nM	≤ 1000 nM
CC[C@@H](O)CNC(=O)Nc1ccc2nc(-c3ccccc3)c(-c3ccccc3)c(C)c2c1 [Example 103, (R)-1-(2-hydroxybutyl)-3-(4-methyl-2,3-diphenylquinolin-6-yl)urea]	< 100 nM	< 100 nM
CCC(O)CNC(=O)Nc1ccc2nc(C)c(-c3ccccc3)c(NC(C)=O)c2c1 (stereo not shown) [Example 93, N-(6-(3-(2-hydroxybutyl)ureido)-2-methyl-3-phenylquinolin-4-yl)acetamide]	≤ 1000 nM	< 100 nM
CCC(F)(F)CNC(=O)Nc1ccc2nc(-c3ccccc3)c(-c3ccccc3F)cc2c1 [Example 45, 1-(2,2-Difluorobutyl)-3-(3-(2-fluorophenyl)-2-phenylquinolin-6-yl)urea]	< 100 nM	< 100 nM
CC[C@@H](O)CNC(=O)Nc1ccc2nc(C)c(-c3ccccc3F)cc2c1 [Example 100, (R)-1-(3-(2-fluorophenyl)-2-methylquinolin-6-yl)-3-(2-hydroxybutyl) urea]	< 100 nM	< 100 nM
CCC(O)CNC(=O)Nc1ccc2nc(C)c(-c3ccccc3)c(C#N)c2c1 (stereo not shown) [Example 98, 1-(4-cyano-2-methyl-3-phenylquinolin-6-yl)-3-(2-hydroxybutyl) urea]	< 100 nM	≤ 1000 nM
CCC(F)(F)CNC(=O)Nc1ccc2nc(C)c(-c3ccccc3)cc2c1 [Example 105, 1-(2,2-difluorobutyl)-3-(2-methyl-3-phenylquinolin-6-yl)urea]	< 100 nM	< 100 nM
CCC(CNC(=O)Nc1ccc2nc(C)c(-c3ccccc3)cc2c1)OC (stereo not shown) [Example 77, 1-(2-methoxybutyl)-3-(2-methyl-3-phenylquinolin-6-yl)urea]	≤ 1000 nM	< 100 nM
CCC(O)CNC(=O)Nc1ccc2nc(-c3ccnc(OC)c3)c(-c3ccnc(OC)c3)cc2c1 (stereo not shown) [Example 9, 1-(2,3-bis(2-methoxypyridin-4-yl)quinolin-6-yl)-3-(2-hydroxybutyl) urea]	≤ 10000 nM	> 10000 nM
CC[C@@H](O)CNC(=O)Nc1cc2cc(-c3ccccc3)c(-c3ccccc3)nc2cc1F [Example 90, (R)-1-(7-fluoro-2,3-diphenylquinolin-6-yl)-3-(2-hydroxybutyl) urea]	≤ 1000 nM	≤ 1000 nM
O=C(Nc1ccncc1)Nc1ccc2nc(-c3ccccc3)c(-c3ccccc3)cc2c1 [Example 142, 1-(2,3-diphenylquinolin-6-yl)-3-(pyridin-4-yl)urea]	> 10000 nM	> 10000 nM
O=C(Nc1ccc2nc(-c3ccccc3)c(-c3ccccc3)cc2c1)NC1CCCC1O (stereo not shown) [Example 136, 1-(2,3-diphenylquinolin-6-yl)-3-(2-hydroxycyclo-pentyl)urea]	≤ 1000 nM	≤ 1000 nM
CCC(O)CNC(=O)Nc1ccc2nc(-c3ccccc3)c(-c3ccccc3)c(NS(C)(=O)=O)c2c1 (stereo not shown) [Example 94, N-(6-(3-(2-Hydroxybutyl)ureido)-2,3-diphenylquinolin-4-yl)methanesulfonamide]	< 100 nM	< 100 nM
CC[C@H](O)CNC(=O)Nc1ccc2nc(C)c(-c3ccccc3)cc2c1 [Example 89, (S)-1-(2-hydroxybutyl)-3-(2-methyl-3-phenylquinolin-6-yl)urea]	≤ 1000 nM	≤ 1000 nM

— patent US20220298115A1, “SMALL MOLECULE INHIBITORS OF ACETYL COENZYME A SYNTHETASE SHORT CHAIN 2 (ACSS2)” (Curadev Pharma Pvt. Ltd., priority 2019, published 2022)
